Experimental data reported in patent US5686448A (priority 1995, dated 1997).
Values joined by “and” are separate entries in the source; they are usually repeats but may differ in a detail not shown here. Equal values may be shown once. Read-outs that look alike come from different tables or passages of the source.

How the values were obtained:
[1] = system: HSV-1 (F strain)
Method: In Series No. 1 of Example No. 1, monolayer cultures of Vero, RK-13 (rabbit kidney), and WISH (human amnion, Hayflick) cells were used in the experiments of Example No. 1. The cells were grown in Basal Minimal Eagle's Media supplemented with 5% fetal calf serum, 1% glutamine, sodium bicarbonate and antibiotics. Cultures were maintained in a maintenance media that was the same media, except that the maintenance media contained 2% fetal calf serum. An F Strain of HSV-1 was chosen because it is a well-known prototype of HSV-1. This F Strain can be obtained from the American Type Culture Collection (ATCC), 12301 Parklawn Drive, Rockville, Md. 20852, at which it is identified as ATC-VR 733. For studies with HSV-2, a G strain of HSV-2 (ATCC-VR 734) and a 333 strain of HSV-2 were selected. These strains also can be obtained from the ATCC.
Two methods were used to test the drug's effectiveness in the suppression of viral growth. In the pre-inoculation experiments, the drug was added after adsorption of the virus. In the pre-incubation experiments, the drug was added prior to infection of the cell cultures.
Accordingly, the pre-inoculation experiments measured the effect of the drug on a cell that was already infected with the virus. The pre-incubation experiments measured the cell cultures that were treated with the drug prior to the inoculation to determine if these cells then would be permissive or non-permissive to the tested virus. In these experiments, plaque reduction assays provided a quantitative measure of antiviral activity and was deemed to be reliable and objective.
In the pre-incubation experiments, the media was either decanted or gently aspirated from the cultures. After decanting or aspirating, 1 ml of the drug dilution plus maintenance media was added to the cultures. The cultures that served as virus controls or cell controls received 2 ml of maintenance media. After the pre-treatment period, the media was again aspirated and the cell cultures were infected with the virus.
When this occurred, the cultures were fixed and stained with crystal violet. The plaque were then carefully counted under the microscope. By such a counting and careful comparison, percentages of plaque inhibition in the treated cultures were then calculated.
These duplicate wells were incubated for 3 hours. After this time, the maintenance media was aspirated and the cultures were infected. Fresh maintenance media was then added.

[2] = system: Flow 1000 cells (foreskin cells); conditions: 25 mg/ml, 48 hours
Method: Healthy confluent monolayer cell cultures were overlaid with 1 ml of the drug and incubated for 48 hours at 37° C. and then stained. Cell cultures with maintenance media were used as controls.

[3] = system: HSV-1 (F strain); remark: listed apart in the source
[4] = system: HSV-1 (F strain); remark: listed apart in the source
[5] = system: HSV-1 (McKrae strain); conditions: for cells exhibiting CPE, area of infection per field: 20 mg/ml
[6] = system: vaccinia
[7] = system: HSV type 2;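 further: individual clinical case observations in adult human patients with a history of recurrent HSV type 2 lesions, outcomes described qualitatively as reported symptoms and lesion episodes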
[8] = system: HSV types 1 and 2 (herpes simplex)
[9] = Exp. 1E, 4 hours pre-incubation, 100 mg/culture
[10] = Exp. 1E, 7 hours pre-incubation, 100 mg/culture
[11] = Exp. 1D, added after adsorption, 25.0 mg/culture
[12] = Exp. 1D, added after adsorption, 50.0 mg/culture
[13] = Patient J, following day, 1% TEAC ointment topical
[14] = Patient J, two days after infusion 3.6 cc
[15] = Patient K, after second infusion
[16] = Patient B, fourth treatment 4.8 cc
[17] = Patient B, third treatment 4.5 cc
[18] = Patient I, three months after second infusion

CC[N+](CC)(CC)CC.[Cl-] [TEAC, tetraethylammonium chloride]
% plaque inhibition ([1]; Exp. 1D, 3 hours before infection, 12.5 mg/culture): 80% | % plaque inhibition ([1]; Exp. 1D, 3 hours before infection, 25.0 mg/culture): 79% | % plaque inhibition ([1]; Exp. 1D, 3 hours before infection, 50.0 mg/culture): 82% | % plaque inhibition ([1]; Exp. 1D, 3 hours before infection, 100.0 mg/culture): 79% | % plaque inhibition ([1]; Exp. 1E, 2 hours pre-incubation, 12.5 mg/culture): 18% | % plaque inhibition ([1]; Exp. 1E, 2 hours pre-incubation, 25 mg/culture): 17% | % plaque inhibition ([1]; Exp. 1E, 2 hours pre-incubation, 50 mg/culture): 24% | % plaque inhibition ([1]; Exp. 1E, 2 hours pre-incubation, 100 mg/culture): 68% | % plaque inhibition ([1]; Exp. 1E, 4 hours pre-incubation, 12.5 mg/culture): less than 20% | % plaque inhibition ([1]; Exp. 1E, 4 hours pre-incubation, 50 mg/culture): 63% | % plaque inhibition [1, 9]: 100% | cell layer appearance (thin) [1, 9]: thin | % plaque inhibition ([1]; Exp. 1E, 7 hours pre-incubation, 12.5 mg/culture): 76% | % plaque inhibition [1, 10]: 100% | cell layer appearance (thin) [1, 10]: thin | permissiveness of cells to virus ([1]; added before viral inoculation, summary): rendered the cells non-permissive to the virus and no plaque formed | toxicity [2]: toxicity | average plaque number ([3]; 2.5 mg/ml (1 ml plus 4 ml media), Vero, control 488.5): 75.5 plaque | size of the plaque vs control ([3]; 2.5 mg/ml, Vero): appreciably smaller | suppression of viral growth ([3]; summary of first series): not only by the reduced number of plaque, but also by their reduced size | % plaque inhibition ([4]; Exp. 1C, added after inoculation, 0.62 mg/culture): 30% | % plaque inhibition ([4]; Exp. 1C, added after inoculation, 1.25 mg/culture): 39% | % plaque inhibition ([4]; Exp. 1C, added after inoculation, 2.50 mg/culture): 46% | % plaque inhibition ([4]; Exp. 1C, added after inoculation, 5.00 mg/culture): 45% | % plaque inhibition ([4]; Exp. 1C, added after inoculation, 10.00 mg/culture): 56% | antiviral activity ([4]; Exp. 1C, all dilutions): Antiviral activity was seen in all dilutions tested | % plaque inhibition ([4]; Exp. 1D, added after adsorption, 6.2 mg/culture): 20% | % plaque inhibition ([4]; Exp. 1D, added after adsorption, 12.5 mg/culture): 62% | plaque formation ([4]; Exp. 1D, added after adsorption, 25 mg/culture): no plaque formed | % plaque inhibition [4, 11]: 100% | cell layer appearance (thin = cells attached, monolayer not confluent) [4, 11]: thin | plaque formation ([4]; Exp. 1D, added after adsorption, 50 mg/culture): no plaque formed | % plaque inhibition [4, 12]: 100% | cell layer appearance (thin = cells attached, monolayer not confluent) [4, 12]: thin | inhibition of in vitro replication ([4]; HSV-1, summary): inhibited the in vitro replication of HSV-1 and HSV-2 | cells exhibiting CPE, area of infection per field ([5]; 6 hours P.I., virus control 1/4): 1/6 | cells exhibiting CPE, area of infection per field ([5]; 30 hours P.I., virus control 1/2): scattered | No. of cells with virus particles ([5]; 6 hours P.I., 100 cells examined, control 0): 0 | No. of cells with internuclear dense bodies ([5]; 6 hours P.I., 100 cells examined, control 14): 12 | Total % ([5]; 6 hours P.I., 100 cells examined, control 14%): 12% | cell membrane appearance ([5]; 6 hours post infection): unusually extended and wavy | No. of cells with internuclear dense bodies ([5]; 24 hours P.I., 300 cells examined, control 0 of 50): 12 | No. of cells with virus particles ([5]; 24 hours P.I., 300 cells examined, control 50 of 50): 8 | Total % ([5]; 24 hours P.I., 300 cells examined, control 100%): 6% | nucleocapsid size ([5]; 24 hours post infection): about 99.6 A | nucleocapsids in cytoplasm ([5]; 24 hours post infection): coreless nucleocapsids in paracrystalline arrays | virus particles in inter-cellular space ([5]; 24 hours post infection): some abnormal virus particles were detected | cell layer appearance [6]: thin | plaque formation [6]: did not have any plaque | tiny areas under the skin ([7]; Patient A, about two weeks after third infusion 3.4 cc): disappeared in about a day | duration of vesicles ([7]; Patient A, after first infusion): disappeared in two to three days without pain | duration of spots ([7]; Patient A, after third infusion): 24 h | recurrence of lesions or pain ([7]; Patient A, eighteen months after initial exam): no further lesions or pain | sciatic pain ([7]; Patient A, first infusion 2.8 cc of 100 mg/cc): cessation of sciatic pain | sciatic nerve pain ([7]; Patient A, second infusion 3.2 cc): the sciatic nerve pain disappeared during the infusion | itching and tingling ([7]; Patient D): itching and tingling disappeared | lesions ([7]; Patient D, two days later): all lesions were improving | lesions ([7]; Patient E, 5 days after third infusion 5 cc): all lesions had cleared up | prodome and lesions ([7]; Patient E, after first infusion): massive prodome with large weeping lesions | pinpoint lesions breaking out ([7]; Patient E, after third infusion): 5-6 pinpoint lesions | prodome and lesions ([7]; Patient E, next day after second infusion): no prodome and no lesions | breakout ([7]; Patient E, second day after second infusion): another breakout was occurring | lesions ([7]; Patient E, two days after first infusion): the lesions had started to crust | general condition ([7]; Patient F, about 3 weeks later): completely cleared up | lesion ([7]; Patient F, next day, 3.8 cc): improved | new lesions ([7]; Patient F, nine days after second infusion): on the other side lesions had developed | duration of subsequent lesions ([7]; Patient F, subsequent follow up): 12 days and 7 days | crusting of lesions ([7]; Patient G, 4.3 cc): never crusted | psoriasis ([7]; Patient G, 4.3 cc): psoriasis improved | time to disappearance of lesions ([7]; Patient G, 4.3 cc): ≤ 48 h | lesions ([7]; Patient G, next day, 4.3 cc): the lesions improving | setback ([7]; Patient H, 6 days later): setback 6 days later when the condition became a visual attack | improvement ([7]; Patient H, following day, 4.6 cc (6.0 mg/kg)): striking improvement | further problems ([7]; Patient H, six months after treatment, besides 2 minor incidents of red spots and some aura): no further problems | incidents since treatment ([7]; Patient J, 12 months later, ointment applied): very few incidents since treatment | new vesicles [7, 13]: 2 vesicles | tingling and redness [7, 13]: the tingling and redness had gone | duration of lesion ([7]; Patient J, later attack, 1% TEAC ointment topical): 3 days | lesions ([7]; Patient J, three days later, 1% TEAC ointment topical): all the lesions had dried up | lesions [7, 14]: the lesions were drying | pain [7, 14]: the pain had disappeared | duration of attacks [7, 15]: 2 to 3 days | severity of attacks [7, 15]: milder severity | expected attack ([7]; Patient K, six weeks after second infusion 3.4 cc): the attack had not occurred | oral lesion resolution ([8]; Patient B, 3 days after first infusion): resolution occurring in a shorter than usual time | severity of attack ([8]; Patient B, about a month after second treatment): the attack was never serious and that no lesion appeared | attacks ([8]; Patient B, about a month later): no more attacks | aura and lesion ([8]; Patient B, day after second 3.7 cc): absence of an aura and no occurrence of the expected lesion except for a very small lesion | duration of penile lesions [8, 16]: 8 days | value of treatment [8, 16]: the last treatment appeared of no value | recurrences [8, 17]: recurrences were not eliminated | time to disappearance of penile lesion [8, 17]: 2 to 3 days | fever blisters ([8]; Patient C): cleared right away | labial lesions ([8]; Patient C): two attacks of labial lesions cleared rapidly | forehead lesion ([8]; Patient C, about a month later): crusted relatively quickly | further problems ([8]; Patient C, five and ten months after initial treatment): no further problems | lesions ([8]; Patient C, next day, 3.85 cc (5 mg/kg)): markedly improved | infection ([8]; Patient I, first infusion 4.7 cc): all clear | further lesions [8, 18]: no further lesions until one developed in the preceding week | nocturnal headaches [8, 18]: no further nocturnal headaches
